Source: article PMC4383003, “Transfer hydrogenation catalysis in cells as a new approach to anticancer drug design” (Nature Communications, 2015)
Several values for one entry are separate records, joined by “and”; a condition that tells them apart may be missing. Equal values may be shown once.

Key:
[1] = system: A2780 cells; experiment: Cellular membrane integrity (CytoPainter flow cytometry); type: cell-based, human; settings: A2780, complex 2 alone or with 2 mM sodium formate, 24 h
Experimental: Flow cytometry analysis of cellular membrane integrity of A2780 cells caused by exposure to complex 2 and sodium formate were carried out using the CytoPainter assay (Abcam) according to the manufacturer’s instructions. […] Cells were harvested using trypsin and stained in the dark using CytoPainter Red (Ex/Em 583/603 nm), which reacts with cell surface amines in compromised membranes. After staining, cell pellets were analysed in a Becton Dickinson FACScan Flow Cytometer.

[2] = system: A2780 ovarian cancer cells; experiment: Cell viability on co-administration of Ru complexes (1/3 x IC50) with formate or acetate; type: cell-based, human; settings: for Cell viability percentages / Cell viability: A2780, complex 1/3 x IC50, 24 h
Experimental: Cell viability assays were carried out with complexes 1–8 in A2780 ovarian cancer cells. These experiments were carried out as described above with the following modifications: a fixed concentration of each Ru complex equal to 1/3 × IC50 was used in co-administration with three different concentrations of sodium formate or sodium acetate (0.5, 1.0 and 2.0 mM). To prepare the stock solution of the drug, the complex was dissolved in 5% dimethylsulfoxide and diluted in a 1:1 mixture of 0.9% saline:cell culture medium. This stock was further diluted using RPMI-1640 until working concentrations were achieved. Separately, stock solutions of sodium formate or sodium acetate were prepared in saline. The complex and formate were added to each well independently, but within 5 min of each other.
Supplementary Table 7: Percent cell viability of A2780 ovarian cancer cells exposed to equipotent concentrations of ruthenium complexes 1-3 and 5-8 (1/3 x […]
The experiments included 48 h of pre-incubation and 72 h of drug recovery, both in drug-free medium at 310 K in a 5% CO2 humidified atmosphere. All the experiments were performed as duplicates of triplicates in independent experiments and the error bars were calculated as the standard deviation from the mean.
Supplementary Table 11: Cell viability (%) of A2780 ovarian cancer cells exposed […]
administered with different concentrations of sodium acetate (0, 0.5, 1 and 2 mM).
The experiments involved 48 h of pre-incubation and 72 h of drug recovery, both in […]
Cell viability percentages (%)
Complex Acetate concentration (mM)

[3] = system: A2780 cells; experiment: ROS determination by flow cytometry; type: cell-based, human; settings: A2780, complex 2 and 2 mM sodium formate, 24 h
Experimental: Flow cytometry analysis of total induction of ROS in A2780 cells caused by exposure to complex 2 and sodium formate was carried out using the Total ROS detection kit (Enzo Life Sciences) according to the supplier’s instructions. Briefly, 1.0 × 10^6 A2780 cells per well were seeded in a six-well plate. […] After 24 h of drug exposure, supernatants were removed by suction and cells were washed and harvested. Staining was achieved by resuspending the cell pellets in buffer containing the green fluorescent reagent. Cells were analysed in a Becton Dickinson FACScan Flow Cytometer using Ex/Em: 490/525 nm for the oxidative stress detection. Data were processed using Flowjo software. The experiment included cells treated with pyocyanin for 30 min as positive control.

[4] = system: calf thymus DNA; experiment: Interaction with calf thymus DNA (ethanol precipitation, ICP-MS of Ru); type: binding
Experimental: Interaction with calf thymus DNA
Complex 2 was chosen as representative of the series. A stock solution of complex 2 (0.7 mM in 5 % acetonitrile/water) was prepared and aliquots of 66 μL were added to a solution of CT-DNA (final ratio 1:3 complex: base pairs-DNA) in water, 2 mM cacodylate buffer and 2 mM NaCl. The reaction mixture was incubated at 310 K, and aliquots of 300 μL were taken at different intervals during a period of 27 h. The DNA was then precipitated by addition of ethanol (700 μL, final concentration 70% v/v). Ru complexes which are strongly bound to CT-DNA will precipitate together with the DNA upon addition of ethanol, and, therefore the ruthenium concentration in the supernatant should decrease. However, no changes in the Ru concentration were detected by ICP-MS showing that the interaction between the complex 2 and DNA is weak (t = 0 h / 64.2 ± 0.7 µM, t = 24 h/ 65.1 ± 0 .3 µM free Ru). In contrast complex 8

[5] = system: A2780 ovarian cancer cells; experiment: Ruthenium distribution in cancer cells (cell fractionation, ICP-MS); type: cell-based, human
Experimental: Cell pellets were obtained as described above, and were fractionated using the Fraction PREP kit from BioVision according to the supplier’s instructions. Each sample was digested overnight in concentrated nitric acid (73%) and the amount of Ru taken up by the cells was determined by ICP–MS. These experiments were all carried out in triplicate and the s.d. were calculated.
Supplementary Table 9: Cellular distribution of complex 2 (as % Ru) in A2780 ovarian cancer cells when co-administered with different concentrations of sodium formate (0 and 2 mM). All the experiments were performed as duplicates of triplicates in independent experiments and the error bars were calculated as the standard deviation from the mean.
Formate Cytosol Membrane Cytoskeleton Nuclei

[6] = Transfer hydrogenation of NAD+ to 1,4-NADH with formate, followed by 1H NMR; settings: NAD+ 2 mol equiv, formate 25 mol equiv, 310 K, pH* 7.2
Experimental: Complexes 1–7 were dissolved in MeOH-d4/D2O (5:1 v/v, 1.4 mM, 4 ml). Solutions of sodium formate (35 mM, 4 ml) and NAD^+ in D2O (2.8 mM, 2 ml) were also prepared and incubated at 310 K. In a typical experiment, 200-μl aliquots of each solution were added to a 5-mm NMR tube and the pH* adjusted to 7.2±0.1 (total volume 0.635 ml, final concentrations: Ru complex 0.44 mM; NAD^+ 0.88 mM; formate 11.02 mM; molar ratio 1:2:25). ^1H NMR spectra were recorded at 310 K every 162 s until the completion of the reaction.
Molar ratios of NAD^+ and NADH were determined by integrating the peaks at 9.33 and 6.96 p.p.m. (NAD^+ and 1,4-NADH, respectively). The turnover number for the reaction was calculated as follows: […]
where In is the integral of the signal at n p.p.m. and [NAD^+]0 is the concentration of NAD^+ at the start of the reaction.

[7] = A2780, complex 2 4.5 μM, presence and absence of formate (2 mM)

Question: Which “cellular membrane integrity, FL2 fluorescence of CytoPainter red” value [1] does the source give for `Cc1ccc(C(C)C)cc1.Cc1ccc(S(=O)(=O)[N-]CCN)cc1.[Cl-].[Ru+2]` [Complex 2, [(p-cym)Ru(TsEn)Cl]] here?
Answer: low fluorescence

Question: What about the Cell viability percentages ([2]; acetate 0 mM) of the same molecule?
Answer: 70.8 ± 0.6%

Question: What about the Cell viability percentages ([2]; acetate 0.5 mM) of the same molecule?
Answer: 69.4 ± 0.9%

Question: And the Cell viability percentages ([2]; acetate 1 mM)?
Answer: 68.9 ± 0.3%

Question: What about the Cell viability percentages ([2]; acetate 2 mM) of the same molecule?
Answer: 67.1 ± 0.6%

Question: What about the Cell viability ([2]; formate 0.5 mM) of the same molecule?
Answer: 49.7 ± 0.8%

Question: And the Cell viability ([2]; formate 1 mM)?
Answer: 38.2 ± 0.6%

Question: What about the Cell viability ([2]; formate 2 mM) of the same molecule?
Answer: 1.5 ± 0.1% and ~1%

Question: What about the “decrease in cell survival” value ([2]; A2780, formate increased from 0 to 2 mM) of the same molecule?
Answer: ca. 50 fold

Question: And the “levels of reactive oxygen species (ROS) in treated cells” value [3]?
Answer: comparable to those arising from treatment with N-acetyl-L-cysteine

Question: And the “free Ru in supernatant” value ([4]; CT-DNA, 1:3 complex:base pairs, 310 K, t = 0 h)?
Answer: 64.2 ± 0.7 µM

Question: And the “binding to calf thymus DNA” value ([4]; ICP-MS of Ru, up to 27 h at 310 K, 1:3 complex:DNA base pairs, 2 mM cacodylate pH 7.4, 2 mM NaCl)?
Answer: weak and no binding

Question: What about the “Ru in cytoskeletal fraction” value ([5]; A2780, complex 2 4.5 μM) of the same molecule?
Answer: little Ru

Question: What about the “Ru in cytosolic fraction” value [5, 7] of the same molecule?
Answer: 51%

Question: What about the “Ru in membrane and organelle fraction” value [5, 7] of the same molecule?
Answer: 38%

Question: And the “Ru in nuclear fraction” value [5, 7]?
Answer: 9%

Question: What about the “%Ru Cytoskeleton” value ([5]; A2780, formate 0 mM) of the same molecule?
Answer: 1.9 ± 0.5%

Question: What about the “%Ru Cytosol” value ([5]; A2780, formate 0 mM) of the same molecule?
Answer: 50.5 ± 2.4%

Question: What about the “%Ru Membrane” value ([5]; A2780, formate 0 mM) of the same molecule?
Answer: 41.6 ± 1.4%

Question: What about the “%Ru Nuclei” value ([5]; A2780, formate 0 mM) of the same molecule?
Answer: 6.0 ± 2.8%

Question: And the “%Ru Cytoskeleton” value ([5]; A2780, formate 2 mM)?
Answer: 1.0 ± 0.8%

Question: And the “%Ru Cytosol” value ([5]; A2780, formate 2 mM)?
Answer: 52.0 ± 3.0%

Question: What about the “%Ru Membrane” value ([5]; A2780, formate 2 mM) of the same molecule?
Answer: 35.7 ± 7.2%

Question: What about the “%Ru Nuclei” value ([5]; A2780, formate 2 mM) of the same molecule?
Answer: 11.3 ± 4.5%

Question: And the “TOF D2O/MeOH-d4” value ([6]; 23% MeOH-d4/77% D2O)?
Answer: 2.88 ± 0.06 h⁻¹

Question: What about the “TOF D2O” value ([6]; D2O) of the same molecule?
Answer: 1.58 ± 0.04 h⁻¹
